Holding throughout (type): in vivo
Test [1] relates to Mycosphaerella graminicola; Anamorph: Septoria tritici. Nature of the test: Leaf blotch of wheat (SEPTTR) disease control on wheat seedlings. The following applies: Zymoseptoria tritici; for pest or weed control at 100 ppm: High volume application; for pest or weed control at 121.5 g/ha: Wheat Leaf Blotch, low volume application, 121.5 g/H. The essentials: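 Protective or curative format: Septoria tritici inoculation either preceded or followed fungicide application to first-leaf Yuma wheat. Severity scored 0–100%; control expressed versus untreated.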

For the next test, the system named is Cercospora beticola. Nature of the test: Leaf spot of sugar beets (CERCBE) disease control. Particulars: 24 h, 1 Day Protectant, high volume, read-out: Disease Control CERCBE 1 DP. As for the experimental part: Technical grades of materials were dissolved in acetone, which were then mixed with nine volumes of water containing 110 ppm Triton X-100. The fungicide solutions were applied onto wheat seedlings using an automated booth sprayer to run-off. All sprayed plants were allowed to air dry prior to further handling. All fungicides were evaluated using the aforementioned method for their activity vs. all target diseases. Wheat leaf blotch and brown rust activity were also evaluated using track spray applications, in which case the fungicides were formulated as EC formulations, containing 0.1% Trycol 5941 in the spray solutions. Sugar beet plants (variety HH88) were grown in soil-less Metro mix and trimmed regularly to maintain a uniform plant size prior to test. Plants were inoculated with a spore suspension 24 hr after fungicide treatments. Inoculated plants were kept in a dew chamber at 22° C. for 48 hr then incubated in a greenhouse set at 24° C. under a clear plastic hood with bottom ventilation until disease symptoms were fully expressed. Fungicide formulation, application and disease assessment on the sprayed leaves followed the procedures as described in the Example A.

Test [2] deals with Blumeria graminis f. sp. hordei; Synonym: Erysiphe graminis f. sp. hordei. Nature of the test: Barley powdery mildew (ERYSGH) disease control. The following applies: 24 h, 1 Day Protectant, high volume, read-out: Disease Control ERYSGH 1 DP. As for the experimental part:
Technical grades of materials were dissolved in acetone, which were then mixed with nine volumes of water containing 110 ppm Triton X-100. The fungicide solutions were applied onto wheat seedlings using an automated booth sprayer to run-off. All sprayed plants were allowed to air dry prior to further handling. All fungicides were evaluated using the aforementioned method for their activity vs. all target diseases. Wheat leaf blotch and brown rust activity were also evaluated using track spray applications, in which case the fungicides were formulated as EC formulations, containing 0.1% Trycol 5941 in the spray solutions. Barley seedlings (variety Harrington) were propagated in soil-less Metro mix, with each pot having 8 to 12 plants, and used in the test when first leaf was fully emerged. Test plants were inoculated by dusting with infected stock plants 24 hr after fungicide treatments. After inoculation the plants were kept in a greenhouse set at 20° C. for disease to develop. Fungicide formulation, application and disease assessment on the sprayed leaves followed the procedures as described in the Example A.

The subject of a further test is Venturia inaequalis. The test can be described thus: Apple scab (VENTIN) disease control. Particulars: 24 h, High volume application, 1 Day Protectant, read-out: VENTIN 1 DP disease control. The method, then: Technical grades of materials were dissolved in acetone, which were then mixed with nine volumes of water containing 110 ppm Triton X-100. The fungicide solutions were applied onto wheat seedlings using an automated booth sprayer to run-off. All sprayed plants were allowed to air dry prior to further handling. All fungicides were evaluated using the aforementioned method for their activity vs. all target diseases. Wheat leaf blotch and brown rust activity were also evaluated using track spray applications, in which case the fungicides were formulated as EC formulations, containing 0.1% Trycol 5941 in the spray solutions. Apple seedlings (variety McIntosh) were grown in soil-less Metro mix, with one plant per pot. Seedlings with two expanding young leaves at the top (older leaves at bottom of the plants were trimmed) were used in the test. Plants were inoculated with a spore suspension of Venturia inaequalis 24 hr after fungicide treatment and kept in a 22° C. dew chamber with 100% RH for 48 hr, and then moved to a greenhouse set at 20° C. for disease to develop. Fungicide formulation, application and disease assessment on the sprayed leaves followed the procedures as described in the Example A.

A further test relates to Leptosphaeria nodorum. The test can be described thus: Wheat glume blotch (LEPTNO) disease control. The following applies: Parastagonospora nodorum, 24 h, High volume application, 1 Day Protectant, read-out: LEPTNO 1 DP disease control. As for the experimental part: Technical grades of materials were dissolved in acetone, which were then mixed with nine volumes of water containing 110 ppm Triton X-100. The fungicide solutions were applied onto wheat seedlings using an automated booth sprayer to run-off. All sprayed plants were allowed to air dry prior to further handling. All fungicides were evaluated using the aforementioned method for their activity vs. all target diseases. Wheat leaf blotch and brown rust activity were also evaluated using track spray applications, in which case the fungicides were formulated as EC formulations, containing 0.1% Trycol 5941 in the spray solutions. Wheat plants (variety Yuma) were grown from seed in a greenhouse in 50% mineral soil/50% soil-less Metro mix until the first leaf was fully emerged, with 7-10 seedlings per pot. These plants were inoculated with an aqueous spore suspension of Leptosphaeria nodorum 24 hr after fungicide treatments. After inoculation the plants were kept in 100% relative humidity (one day in a dark dew chamber followed by two days in a lighted dew chamber at 20° C.) to permit spores to germinate and infect the leaf. The plants were then transferred to a greenhouse set at 20° C. for disease to develop. Fungicide formulation, application and disease assessment followed the procedures as described in the Example A.

A further test concerns Phakopsora pachyrhizi. Nature of the test: Asian soybean rust (PHAKPA) disease control. Particulars: topical, high volume. A digest of the protocol: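 Compounds in acetone diluted with nine volumes water containing 0.011% Tween 20, sprayed to run-off on two-week-old Williams 82 soybean seedlings, inoculated 3 days before or 1 day after treatment. Plants held 24 h in dark dew room at 22 °C, 100% RH, then at 23 °C; disease severity scored on sprayed leaves.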

The subject of test [3] is Magnaporthe grisea; Anamorph: Pyricularia oryzae. The test can be described thus: whole plant or invertebrate. Particulars: 24 h, read-out: PYRIOR 1 DP disease control.
The mark [4] stands for this setting: 24 h, 1 Day Protectant, read-out: SEPTTR 1DP disease control.
Where [5] appears, read: 72 h, 3 Day Curative, read-out: SEPTTR 3DC disease control.
Setting [6] is: 24 h, 1 Day Protectant, read-out: Disease Control PHAKPA 1DP.
The mark [7] stands for this setting: 72 h, 3 Day Curative, read-out: Disease Control PHAKPA 3DC.
[8] abbreviates: 24 h, 1 Day Protectant, read-out: Disease Control SEPTTR 1 DP 121.5 g/H.
The mark [9] stands for this setting: 72 h, 3 Day Curative, read-out: Disease Control SEPTTR 3 DC 121.5 g/H.

Each structure is given as a SMILES string. Where two headings read alike, the source gives them in different places.

Regarding `COc1ccnc(C(=O)N[C@H]2CCC[C@H](Oc3ccccc3)[C@@H](OCC(C)C)[C@H](C)OC2=O)c1OCOC(C)=O` [F28], the pest or weed control at 100 ppm is 80 to 100% in test [1] (setting [4]); 80 to 100% in test [1] (setting [5]); 80 to 100% with Cercospora beticola; 80 to 100% in test [2]; 80 to 100% in the test with Venturia inaequalis; 0 to 80% in the test with Leptosphaeria nodorum. In addition, the pest or weed control at 100 ppm in test [3] was 80 to 100%. The pest or weed control at 25 ppm was 80 to 100% with Phakopsora pachyrhizi (setting [6]) and 0 to 80% in the test with Phakopsora pachyrhizi (setting [7]).

With `C=C(C)CO[C@H]1CCC[C@H](NC(=O)c2nccc(OC)c2OCOC(C)=O)C(=O)O[C@@H](C)[C@@H]1OC` [F250], the pest or weed control at 121.5 g/ha in test [1] (setting [8]) was under 0%; in test [1] (setting [9]) it was 0 to 80%. Besides, the pest or weed control at 100 ppm was 0 to 80% with Cercospora beticola; 0 to 80% in test [2]; 80 to 100% in the test on Venturia inaequalis; 80 to 100% in the test with Leptosphaeria nodorum; 80 to 100% in test [3]. Moreover, the pest or weed control at 25 ppm was 0 to 80% in the test on Phakopsora pachyrhizi (setting [6]) and under 0% in the test with Phakopsora pachyrhizi (setting [7]).

For `COc1ccnc(C(=O)N[C@H]2CCC[C@H](Oc3ccccc3)[C@@H](OC)[C@H](C)OC2=O)c1OCOC(C)=O` [F252], the pest or weed control at 121.5 g/ha in test [1] (setting [8]) and in test [1] (setting [9]) was 0 to 80% throughout. In addition, the pest or weed control at 100 ppm was 0 to 80% in the test on Cercospora beticola; 0 to 80% in test [2]; 0 to 80% in the test with Venturia inaequalis; 80 to 100% in the test with Leptosphaeria nodorum; 80 to 100% in test [3]. Besides, the figures for the pest or weed control at 25 ppm with Phakopsora pachyrhizi (setting [6]) and in the test on Phakopsora pachyrhizi (setting [7]) were 80 to 100% and 0 to 80%, respectively.

Consider `COc1ccnc(C(=O)N[C@H]2CCC[C@H](Oc3ccccc3)[C@@H](OC)[C@H](C)OC2=O)c1OCOC(=O)C(C)C` [F255], for which the pest or weed control at 121.5 g/ha in test [1] (setting [8]) and in test [1] (setting [9]) was 0 to 80% in each case. Besides, the pest or weed control at 100 ppm lay in the range of 0 to 80% in the test with Cercospora beticola; 0 to 80% in test [2]; 80 to 100% in the test with Venturia inaequalis; 80 to 100% in the test on Leptosphaeria nodorum; 80 to 100% in test [3]. For the same compound, the pest or weed control at 25 ppm with Phakopsora pachyrhizi (setting [6]) lay within 80 to 100%; in the test on Phakopsora pachyrhizi (setting [7]), 0 to 80%.

As to `COc1ccnc(C(=O)N[C@H]2CCC[C@H](Oc3ccccc3)[C@@H](Oc3ccccc3)[C@H](C)OC2=O)c1OCOC(C)=O` [F20], the pest or weed control at 100 ppm is 80 to 100% in test [1] (setting [4]); 80 to 100% in test [1] (setting [5]); 80 to 100% with Cercospora beticola; 0 to 80% in test [2]; 0 to 80% with Venturia inaequalis; 80 to 100% in the test on Leptosphaeria nodorum. Besides, the pest or weed control at 100 ppm in test [3] was in the range of 80 to 100%. Further, the pest or weed control at 25 ppm in the test with Phakopsora pachyrhizi (setting [6]) and in the test with Phakopsora pachyrhizi (setting [7]) was 80 to 100% in each case.

On to `COc1ccnc(C(=O)N[C@H]2CCC[C@H](OCC(C)C)[C@@H](OC)[C@H](C)OC2=O)c1OCOC(=O)C(C)C` [F254], for which the pest or weed control at 121.5 g/ha in test [1] (setting [8]) and in test [1] (setting [9]) was under 0% in each case. Besides, the pest or weed control at 100 ppm with Cercospora beticola was in the range of 0 to 80%; in test [2], 0 to 80%; in the test with Venturia inaequalis it was 80 to 100%; in the test with Leptosphaeria nodorum, 80 to 100%; in test [3], 80 to 100%. Moreover, the pest or weed control at 25 ppm fell in the range of 80 to 100% in the test on Phakopsora pachyrhizi (setting [6]) and 0 to 80% in the test with Phakopsora pachyrhizi (setting [7]).

`C=C(C)CO[C@H]1CCC[C@H](NC(=O)c2nccc(OC)c2OCOC(=O)C(C)C)C(=O)O[C@@H](C)[C@@H]1OC` [F253]: the pest or weed control at 121.5 g/ha in test [1] (setting [8]) and in test [1] (setting [9]) was under 0% in each case. For the same compound, the pest or weed control at 100 ppm was under 0% in the test on Cercospora beticola; 0 to 80% in test [2]; 80 to 100% with Venturia inaequalis; 80 to 100% with Leptosphaeria nodorum; 80 to 100% in test [3]. For the same compound, the results for the pest or weed control at 25 ppm with Phakopsora pachyrhizi (setting [6]) and with Phakopsora pachyrhizi (setting [7]) were 0 to 80% and under 0%, respectively.

As to `COc1ccnc(C(=O)N[C@H]2CCC[C@H](OCC(C)C)[C@@H](OC3CCCC3)[C@H](C)OC2=O)c1OCOC(C)=O` [F39], the pest or weed control at 100 ppm (in test [1] (setting [4]); in test [1] (setting [5]); with Cercospora beticola; in test [2]; in the test with Venturia inaequalis; with Leptosphaeria nodorum) was 80 to 100% each time. The pest or weed control at 100 ppm in test [3] lay in the range of 80 to 100%. Besides, the pest or weed control at 25 ppm in the test on Phakopsora pachyrhizi (setting [6]) and in the test with Phakopsora pachyrhizi (setting [7]) was 80 to 100% in each case.

Take `COc1ccnc(C(=O)N[C@H]2CCC[C@H](OCC(C)C)[C@@H](OCC(C)C)[C@H](C)OC2=O)c1OCOC(C)=O` [F29]: the pest or weed control at 100 ppm (in test [1] (setting [4]); in test [1] (setting [5]); in the test on Cercospora beticola; in test [2]; with Venturia inaequalis; with Leptosphaeria nodorum) was 80 to 100% in each case. In test [3], the pest or weed control at 100 ppm lay in the range of 80 to 100%. The pest or weed control at 25 ppm in the test with Phakopsora pachyrhizi (setting [6]) lay within 80 to 100%.

Turning to `COc1ccnc(C(=O)N[C@H]2CCC[C@H](OCC(C)C)[C@@H](OC)[C@H](C)OC2=O)c1OCOC(C)=O` [F251], the pest or weed control at 121.5 g/ha in test [1] (setting [8]) and in test [1] (setting [9]) was under 0% each time. For the same compound, the pest or weed control at 100 ppm in the test with Cercospora beticola is 0 to 80%; in test [2] it was under 0%; in the test with Venturia inaequalis, under 0%; with Leptosphaeria nodorum, 80 to 100%; in test [3], 80 to 100%. Also, the pest or weed control at 25 ppm in the test on Phakopsora pachyrhizi (setting [6]) fell in the range of 80 to 100%; in the test with Phakopsora pachyrhizi (setting [7]), 0 to 80%.

The record behind these values is US9681664B2, “Macrocyclic picolinamides as fungicides” (Dow Agrosciences LLC, priority 2012, dated 2017).
